From the NIST ThermoML archive (doi:10.1016/j.jct.2017.07.009)

Conditions: 1410 K; Crystal; Calculated from knudsen effusion weight loss

[O-2].[Zn+2] [zinc(II) oxide]
vapor or sublimation pressure: 0.00842 kPa
